Source: patent US20190231751A1, “TREATMENT OF FIBROTIC DISORDERS WITH JUN N-TERMINAL KINASE INHIBITORS” (Imago Pharmaceuticals, Inc., priority 2016, published 2019)
pIC50: −log10 of the molar value.

How the values were obtained:
[1] = tested on: monocyte/macrophage recruitment; test: Monocyte/macrophage recruitment in vivo (Example 9); details: 10 mg/kg/day p.o.; model not specified
JNK1 = JNK1 (Homo sapiens, UniProt P45983); test: In vitro JNK1 inhibition (Table 1); type: biochemical
Experimental: (§1) In vitro assays for the determination of JNK activities are known in the art and exemplary assay formats are described herein.
(§2) IC50 values in Table 1 were determined using the procedures as described in U.S. Pat. No. 8,450,353.

SMAD2 = test: TGF-β1-induced SMAD2 phosphorylation in HFL-1 cells (Western blot); type: cell-based, human; details: TGF-β1 1 ng/ml
Experimental: TGF-β1 factors initiate signaling by assembling receptor complexes that activate SMAD proteins. IGP001 and IGP002 are tested for their ability to suppress TGF-031 induction of SMAD signaling pathway by detecting the dually phosphorylated (Ser 465/Ser 467) form of SMAD2 by Western blotting against specific anti-phosphokinase antibody.
HFL-1 cells are created as described above in Example 3. HFL-1 cells are cultured with 0.1% DMSO (control vehicle), IGP001 or IGP002 for 30 min before stimulation with TGF-β1 (1 ng/ml) for 4 hours. Total RNA is extracted and hybridized with human CTGF probes, and messenger RNA levels are quantified by densitometry and optical density of CTGF mRNA band was corrected for G3PDH, and results are expressed as ratio (%) of control value (TGF-β1-stimulated HFL-1 cells).
Phosphorylation of SMAD2 following treatment with IGP001 or IGP002 are also determined by Western blotting whole cell lysates using an antibody specific for phosphorylated forms of SMAD2.

JNK3 = JNK3 (Homo sapiens, UniProt P53779); test: In vitro JNK3 inhibition (Table 1); type: biochemical
Experimental: as §1, §2

[2] = tested on: c-Jun phosphorylation at serine 63; test: ELISA of c-Jun phosphorylation in PBMC of treated rats; type: in vivo, rat; details: 10 and 30 mg/kg; kainic acid treated rats
Experimental: Blood from the animals treated with kainic acid as per Example 1 above was processed for the characterization of peripheral blood mononuclear cells (PBMC) from the treated animals. Briefly, the final blood samples from the exsanguinated rats were immediately centrifuged at 3,000 g for 10 minutes at 4° C. The plasma in upper layer was removed, and the remaining portion used for the isolation of the PBMC.
The buffy coat of PBMCs at the erythrocyte-plasma interface and the top red cell layer were collected into a 15 mL falcon tube containing 3 ml chilled PBS. The sample was resuspended and transferred to other 15 mL falcon tubes containing 6 ml Ficoll-Paque plus density gradient, and centrifuged at 18° C. for 10 minutes at 800 g. […] The middle ‘cloudy’ interface layer between plasma and Ficoll containing the PBMCs was transferred to a 15 mL tube, washed with 10 mL of cold PBS (4° C., 1×PBS), and centrifuged for 5 min at 4° C. at 1000 g. The supernatant was discarded.
The isolated PBMC were subjected to an ELISA assay using a kit for the detection of c-Jun phosphorylation at serine 63. Detection of phospho-Jun was carried out for the PMBCs of each kainic acid administered rat group: those receiving IGP001 in vehicle, those receiving IGP002 in vehicle, or those receiving vehicle alone.

[3] = Rat PK/PD study: plasma compound levels by LC/MS; type: in vivo; details: female Wistar rats; kainic acid 60 minutes after compound; blood 4 hours post kainic acid
Experimental: Plasma compound levels for two of the JNK inhibitors, IGP001 (Formula (XXI)) and IGP002 (Formula (XXII)), were obtained using a rat model for pharmaceutical administration of the compounds. Female Wistar rats, 7-9 weeks old, were obtained (SLAC Laboratory Animal Co. Ltd., Shanghai, China), and three groups of animals (n=3 each) received 1) kainic acid and 2) either IGP001 in vehicle, IGP002 in vehicle, or vehicle alone. The animals received the kainic acid 60 minutes after they received the IGP001 in vehicle, IGP002 in vehicle, and or vehicle alone.
For administration, the kainic acid was dissolved in saline, and introduced to the rats using the protocol as generally disclosed in Tse K, Puttachary S, Beamer E, Sills G J, Thippeswamy T (2014) PLoS One 9:e96622. Animals in each group were surgically implanted with catheters in carotid artery using polyurethane tubing and heparin (50 IU/mL)/glucose (50%) solutions as the lumen lock solution. Anaesthetic barbital was used during the surgery. The animals were allowed to recover seven days after surgery.
The animals were euthanized 4 hours post kainic acid administration using CO2 inhalation and blood was collected via cardiac puncture. 5 mL blood was transferred into pre-labled plastic microcentrifuge tubes containing K2-EDTA (0.5M) as anti-coagulant. Plasma levels were determined by a validated LC/MS analysis.

JNK = test: TGF-β1-induced JNK activation in human lung fibroblasts (Western blot); type: cell-based; details: HFL-1 cells; compound 30 minutes, then TGF-β1 1 ng/ml 30 minutes
Experimental: IGP001 and IGP002 are shown to affect TGF-β1-induced MAP kinase activities in human lung fibroblasts. Human fetal lung fibroblasts (HFL-1) (ATCC, Rockville, Md.) are cultured in Ham's F12K medium (American Type Culture Collection) supplemented with 50 U/ml penicillin G sodium, 50 μg/ml streptonycin sulfate (GIBCO BRL, Life Technologies, Inc., Rockville, Md.) and 10% fetal bovine serum (FBS; Equitech-Bio. Inc., Ingram, Tex.) and maintained in humidified 5% CO2 at 37° C. After reaching confluence, the serum content of the medium is reduced to 0.4% FBS for 24 h. The cells are then stimulated with 1 ng/ml TGF-β1 to produce CTGF.
To test the ability of IGP001 and IGP002 to suppress activation of JNK, HFL-1 cells are cultured with 0.1% DMSO (control vehicle), IGP001 or IGP002 at a concentration of […] for 30 minutes, followed by stimulation with TGF-β1 (1 ng/ml) for 30 minutes. Activities of JNK, p38 MAP kinase and ERK are determined by Western blotting whole cell lysates using antibodies specific for phosphorylated, activated forms of JNK, p38 MAP kinase, and ERK. […]
Phosphorylated JNK protein levels are quantified by densitometry. The optical density of the p46 and p54 phosphorylated protein band are corrected for total p46 and p54 protein, respectively, and results are expressed as ratio (%) of control value (TGF-β1-stimulated HFL-1 cells).

JNK1, sequence (P45983 whole entry, species assumed): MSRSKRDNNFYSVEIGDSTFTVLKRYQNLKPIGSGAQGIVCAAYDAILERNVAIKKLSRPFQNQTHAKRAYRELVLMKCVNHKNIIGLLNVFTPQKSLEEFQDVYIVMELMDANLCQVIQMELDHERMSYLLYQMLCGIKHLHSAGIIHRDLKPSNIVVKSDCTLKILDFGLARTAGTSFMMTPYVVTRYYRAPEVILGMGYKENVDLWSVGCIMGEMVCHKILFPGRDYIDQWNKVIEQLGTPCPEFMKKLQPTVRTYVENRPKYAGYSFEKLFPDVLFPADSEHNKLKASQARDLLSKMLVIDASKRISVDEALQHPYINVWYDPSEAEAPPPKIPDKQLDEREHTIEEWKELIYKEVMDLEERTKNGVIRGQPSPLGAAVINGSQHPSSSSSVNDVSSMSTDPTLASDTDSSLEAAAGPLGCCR
JNK3, sequence (P53779 whole entry, species assumed): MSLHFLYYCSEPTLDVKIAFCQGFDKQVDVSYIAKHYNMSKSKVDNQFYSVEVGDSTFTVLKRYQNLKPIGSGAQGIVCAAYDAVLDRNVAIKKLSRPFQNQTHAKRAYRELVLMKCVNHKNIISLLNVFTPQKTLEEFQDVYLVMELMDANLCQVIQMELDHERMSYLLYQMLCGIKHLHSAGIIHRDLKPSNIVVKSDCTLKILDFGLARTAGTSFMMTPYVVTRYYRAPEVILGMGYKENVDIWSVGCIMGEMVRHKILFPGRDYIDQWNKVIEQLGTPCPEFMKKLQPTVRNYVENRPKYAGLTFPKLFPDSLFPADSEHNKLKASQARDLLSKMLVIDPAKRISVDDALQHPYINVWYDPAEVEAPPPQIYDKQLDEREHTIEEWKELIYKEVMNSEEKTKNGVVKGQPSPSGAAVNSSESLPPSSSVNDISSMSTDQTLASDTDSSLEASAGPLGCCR

Compound: O=C(Cn1c(=O)ccc2cc(C(F)(F)F)ccc21)Nc1scc(Br)c1-c1nnc[nH]1 [IGP001, N-(4-bromo-3-(1H-1,2,4-triazol-5-yl)thiophen-2-yl)-2-(2-oxo-6-(trifluoromethyl)quinolin-1(2H)-yl)acetamide]
- monocyte/macrophage recruitment in vivo [1]: significantly reduce monocyte/macrophage recruitment
- pIC50 (JNK1): > 7.00
- amounts of phosphorylated SMAD2 (SMAD2): significantly increase
- pIC50 (JNK3): > 7.00
- c-Jun phosphorylation in PBMC [2]: decrease in c-Jun phosphorylation
- plasma compound levels versus cellular EC50 [3]: sufficient compound in the plasma of treated animals to exceed cellular EC50 in the periphery
- TGF-β1-induced JNK phosphorylation (JNK): suppress TGF-β1-induced JNK phosphorylation in a dose-dependent fashion
